Experimental data reported in ChEMBL document CHEMBL1124314, “Development of phosphonate derivatives of gadolinium chelates for NMR imaging of calcified soft tissues” (J Med Chem, 1989).

How the values were obtained:
[1] = species on record: Rattus norvegicus; test: Biodistribution in rat liver by in the presence of NCAGd/0.01 M lig; type: ADME, organism-based; conditions: in vivo
[2] = species on record: Rattus norvegicus; test: Uptake of [GD] in bone 1 hr post injection with NCA GD dose; type: functional, Bone element
[3] = Ratio of uptake of [GD] in bone 1 hr post injection with 0.01 (N) to that of muscle
[4] = species on record: Rattus norvegicus; test: Uptake of [GD] in bone 1 h post injection with 0.01 of the compound; type: functional, Bone element
[5] = Ratio of uptake of [GD] in bone 1 hr post injection with NCA GD dose to that of muscle; type: functional
[6] = species on record: Rattus norvegicus; test: Biodistribution in rat spleen in the presence of NCAGd/0.01 M lig; type: ADME, organism-based; conditions: in vivo
[7] = Ratio of uptake of [GD] in bone 1 hr post injection with 0.01 to that of muscle; type: functional
[8] = species on record: Rattus norvegicus; test: Biodistribution in rat heart in the presence of NCAGd/0.01 M lig; type: ADME, organism-based; conditions: in vivo
[9] = species on record: Rattus norvegicus; test: Biodistribution in rat blood in the presence of NCAGd/0.01 M lig; type: ADME, organism-based; conditions: in vivo
[10] = species on record: Rattus norvegicus; test: Biodistribution in rat kidney in the presence of NCAGd/0.01 M lig; type: ADME, organism-based; conditions: in vivo
[11] = Ratio of uptake of [GD] in bone 1 hr post injection with 0.01 (N) to that of blood
[12] = species on record: Rattus norvegicus; test: Uptake of [GD] in bone 1 hr post injection with 0.01 (N) of the compound
[13] = species on record: Rattus norvegicus; test: Biodistribution in rat muscle in the presence of NCAGd/0.01 M lig; type: ADME, organism-based, Muscle tissue; conditions: in vivo
[14] = species on record: Rattus norvegicus; test: Biodistribution in rat bone in the presence of NCAGd/0.01 M lig; type: ADME, organism-based, Bone element; conditions: in vivo
[15] = species on record: Rattus norvegicus; test: Uptake of [GD] in bone 1 hr post injection with 0.01(N) of the compound; type: functional, Bone element
[16] = Ratio of uptake of [GD] in bone 1 hr post injection with 0.01(A) to that of muscle; type: functional
[17] = Ratio of uptake of [GD] in bone 1 hr post injection with 0.01(N) to that of muscle; type: functional
[18] = species on record: Rattus norvegicus; test: Uptake of [GD] in bone 1 hr post injection with 0.01(A) of the compound; type: functional, Bone element
[19] = Ratio of uptake of [GD] in bone 1 hr post injection with 0.01(A) to that of blood; type: functional
[20] = Ratio of uptake of [GD] in bone 1 h post injection with 0.01(N) to that of blood; type: functional

ID/organ [1] | ID/organ [6] | ID/organ [8] | ID/organ [9] | ID/organ [10] | ID/organ [13] | ID/organ [14] | Compound | ID [2] | Ratio [3] | ID [4] | Ratio [5] | Ratio [7] | Ratio [11] | ID [12] | ID [15] | Ratio [16] | Ratio [17] | ID [18] | Ratio [19] | Ratio [20]
41% | 0.19% | 0.28% | 7.25% | 2.85% | 4.09% | 27.7% | CC(C)(CO)NCCNC(C)(C)CO | 27.7% | 1.47% | 7.23% | 6.78% | 1.61% | 0.135% | 2.56% |  |  |  |  |  | 
20.9% | 0.135% | 0.34% | 2.35% | 3.57% | 6.09% | 56.8% | OC(CNCCNCC(O)c1ccccc1)c1ccccc1 (stereo not drawn) | 56.8% |  |  |  |  |  |  | 6.36% | 1.6% | 2.14% | 6.37% | 0.139% | 0.188
